These results are taken from patent US11136409B2, “Compositions and methods for identification, assessment, prevention, and treatment of AML using USP10 biomarkers and modulators” (Dana-Farber Cancer Institute, Inc., priority 2016, dated 2021).

Assay [1] addresses T1, human USP10 (residues 376-798) (Homo sapiens, UniProt Q14694).
T1 construct: A construct of human USP10 covering residues 376-798 in the pET28a vector; His-tag (cleaved yes); made in house; host or cells: E. coli BL21 (DE3)
Briefly: In vitro USP10 activity assay (Ubiquitin-AMC). It counts as biochemical. To be noted: biochemical assay, FIG. 13B.

Another assay relates to PBMCs. Briefly: Treatment of PBMCs from healthy donors with USP10-targeting inhibitors. It counts as cell-based, human. The text has this: Nomo-1, P31-FUJ, and NB4 were obtained from Dr. Gary Gilliland. MV4, 11 cells were obtained from Dr. Anthony Letai. Hel, K562, THP, U937, TF-1 and K052 cells were purchased from the American Type Culture Collection (ATCC) (Manassas, Va., USA). […] Cell lines were submitted for cell line authentication and were authenticated within 6 months of manuscript preparation through cell line short tandem repeat (STR) profiling (DDC Medical, Fairfield, Ohio and Molecular Diagnostics Laboratory, Dana Farber Cancer Institute). […] PBMCs were generously provided by Dr. Steven Treon and Dr. Guang Yang.
The CellTiter-Glo® assay (Promega, Madison, Wis.) was used for proliferation studies and carried out according to manufacturer instructions. Cell viability is reported as percentage of control (untreated) cells, and error bars represent the standard error of the mean for each data point.

The subject of the next assay is Ba/F3-FLT3-ITD cells. In words: Immunoblot of FLT3 / Beclin-1 in Ba/F3-FLT3-ITD cells. In kind it is cell-based, murine. The following applies: for FLT3 protein levels: immunoblot, Ba/F3-FLT3-ITD cells. The text has this: (§1) The following antibodies were purchased from Cell Signaling Technology (Danvers, Mass.): total AKT (rabbit, #9272) and total p44/42 MAPK (Erk1/2) (3A7) (mouse, #9107) were used at 1:1000 dilution. Anti-GAPDH (D16H-11) XP (R) (rabbit mAb, #5174) was used at 1:1000 dilution. Beclin-1 (rabbit, #3738) was used at 1:1000. USP10 (D7A5) (rabbit, #8501) was used at 1:1000 dilution. P53 (rabbit, #9282) was used at 1:1000 dilution. β-tubulin (rabbit, #2146s) was used 1:1000.
FLT3/Flk-2 (C-20) (sc-479) and Ub (P4D1) (mouse, sc-8017) were purchased from Santa Cruz Biotechnology, Inc. (Dallas, Tex.) and used at 1:1000 dilution for immunoblotting. Anti-pTyr (mouse, clone 4G10) was purchased from Upstate Biotechnology (Lake Placid, N.Y.) and was used at 1:1000 dilution. Anti-HAUSP/USP7 antibody (rabbit, ab4080) and anti-ubiquitin antibody (rabbit, ab7780) were purchased from Abcam (Cambridge, Mass.) and used at 1:1000 dilution.
(§2) Protein lysate preparation, immunoblotting, and immunoprecipitation were carried out as previously described in Weisberg et al. (2002) Cancer Cell 1:433-443.
In general terms: A western blot detects proteins with antibodies after separation by electrophoresis.

Assay [2] relates to mutant FLT3-expressing cells. In words: Dynamic BH3 profiling (mitochondrial priming). In kind it is cell-based, human. The following applies: cytochrome c release in response to Bim peptide, 14 h; compared to wt or null FLT3-expressing cells. How it is done: To determine drug-induced changes in mitochondrial priming, dynamic BH3 profiling was performed as previously described in Montero et al. (2015) Cell 160:977-989 and Pan et al. (2014) Cancer Discov. 4:362-375. Briefly, 0.4×10^6 cells/well were exposed to drug treatment for 14 hours. At the end of incubation time, cells were washed in PBS, pelleted at 500×g for 5 min, and resuspended in MEB buffer. Fifteen μl of cell suspension was added to each well of 384 well plate containing 15 μl of MEB buffer containing 20 μg/mL digitonin and BH3 peptides at twice their final concentration, and the mixture was incubated for 60 min at 26° C. to allow mitochondrial depolarization. Peptide exposure was then terminated by adding 10 μl 4% formaldehyde in PBS for 15 min, followed by neutralization with N2 buffer (1.7M Tris, 1.25M glycine, pH 9.1) for 10 min. In order to determine cytochrome C levels, anti-cytochrome C clone 6H2.B4 conjugated to Alexa Fluor® 647 (BD Bioscience) was diluted 1:50 in 10× staining buffer (10% BSA, 2% Tween-20 and 0.02% sodium azide in PBS) and 10 μl of this antibody-containing buffer was added to each well for a final dilution of 1:400. Cells were stained overnight at 4° C. in dark and data were acquired on a BD LSRFortessa™ analyzer (BD Biosciences). Priming change (Δ) was calculated by comparing cytochrome C abundance in treated cells to that of DMSO-treated control cells.

A further assay concerns MOLM13 and MOLM14 cells. In words: p53 levels in AML cell lines (immunoblot). In kind it is cell-based, human.
Description: as §1, §2

Setting [3] is: 24 hr assay, PBMC#1, read-out: IC50 (+/−S.D.) PBMC#1.
Where [4] appears, read: 24 hr assay, PBMC#2, read-out: IC50 (+/−S.D.) PBMC#2.
The mark [5] stands for this setting: 72 hr assay, PBMC#1, read-out: IC50 (+/−S.D.) PBMC#1.
[6] abbreviates: 72 hr assay, PBMC#2, read-out: IC50 (+/−S.D.) PBMC#2.

Molecules are shown by their SMILES. pIC50: −log10 of the molar value. Where two headings read alike, the source gives them in different places.

T1 sequence (Q14694 376-798): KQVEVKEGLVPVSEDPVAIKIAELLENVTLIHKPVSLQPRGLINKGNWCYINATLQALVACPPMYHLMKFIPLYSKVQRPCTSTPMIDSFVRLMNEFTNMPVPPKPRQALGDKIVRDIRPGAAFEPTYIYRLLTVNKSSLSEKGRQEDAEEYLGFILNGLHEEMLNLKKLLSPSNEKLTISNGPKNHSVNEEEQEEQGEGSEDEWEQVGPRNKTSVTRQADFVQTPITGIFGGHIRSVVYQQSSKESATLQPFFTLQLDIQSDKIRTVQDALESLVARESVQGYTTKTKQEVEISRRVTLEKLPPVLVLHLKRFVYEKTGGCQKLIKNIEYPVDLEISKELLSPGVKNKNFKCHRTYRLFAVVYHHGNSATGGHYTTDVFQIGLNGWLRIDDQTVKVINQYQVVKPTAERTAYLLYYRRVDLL

Take `CCCN(CCC)CCCNC(=O)c1ccc2c(Cl)c3c(nc2c1)CCCC3` [C598-0466]: in assay [1], the “USP10 inhibition compared with HBX19818” value was “more potent”. Besides, the pIC50 in the assay on PBMCs (setting [3]) is 4.98; with PBMCs (setting [4]), 4.98; with PBMCs (setting [5]), 5.32; with PBMCs (setting [6]) it was 5.51. Also, in the assay on Ba/F3-FLT3-ITD cells, the FLT3 protein levels entry was “induces FLT3 degradation at lower concentrations”.

As for `O=C(NCCCN1CCN(Cc2ccccc2)CC1)c1ccc2nc3c(c(Cl)c2c1)CCCC3` [C598-0563], the “USP10 inhibition compared with HBX19818” value in assay [1] is “comparably to HBX19818”. Besides, the pIC50 in the assay on PBMCs (setting [3]) was 4.64; in the assay on PBMCs (setting [4]), 4.35; in the assay on PBMCs (setting [5]) it was 4.81; in the assay with PBMCs (setting [6]), 5.10. Besides, in the assay with Ba/F3-FLT3-ITD cells, the FLT3 protein levels result was “induce loss of FLT3 at similar concentrations”.

On to `CCN(CCCNC(=O)c1ccc2nc3c(c(Cl)c2c1)CCC3)Cc1ccccc1` [C673-0105], for which the “USP10 inhibition compared with HBX19818” value in assay [1] was “comparably to HBX19818”. The pIC50 in the assay with PBMCs (setting [3]) was 4.76; in the assay on PBMCs (setting [4]) it was 4.76; with PBMCs (setting [5]) it was 5.00; in the assay with PBMCs (setting [6]) it was 5.14. The “Mitochondrial priming for apoptosis” value in assay [2] is given as “more strongly”.

On to `CN(CCCNC(=O)c1ccc2nc3c(c(Cl)c2c1)CCCC3)Cc1ccccc1` [HBX19818, reference compound], for which the p53 levels result in the assay on MOLM13 and MOLM14 cells is reported as “did not result in a decrease of p53 levels”. In addition, the pIC50 is 4.59 with PBMCs (Homo sapiens, PBMC, 24 h, read-out: IC50 (+/−S.D.) PBMC#1); 4.62 in the assay on PBMCs (Homo sapiens, PBMC, 24 h, read-out: IC50 (+/−S.D.) PBMC#2); 4.91 with PBMCs (Homo sapiens, PBMC, 72 h, read-out: IC50 (+/−S.D.) PBMC#1); 5.14 in the assay on PBMCs (Homo sapiens, PBMC, 72 h, read-out: IC50 (+/−S.D.) PBMC#2). Moreover, the “Protein levels of Beclin-1 and FLT3” value in the assay with Ba/F3-FLT3-ITD cells (20 μM) is on record as “strongly decreased”. In addition, the FLT3 protein levels entry with Ba/F3-FLT3-ITD cells was “loss of FLT3 protein”. Further, the “Mitochondrial priming for apoptosis” value in assay [2] is recorded as “increased priming”.
